The text below walks through data of PubChem BioAssay (NCI).

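Cells were grown in 96-well plates and exposed to each compound for 48 hours at five concentrations; endpoints were interpolated linearly between bracketing concentrations, or set to the highest concentration if not reached. The concentration for 50% growth inhibition is given as GI50. TGI denotes the concentration required for complete inhibition of growth.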 Where only a bound is given, the exact number is not on record here.

Test systems include OVCAR-4 ovarian; U251 CNS; SN12C renal; M14 melanoma; NCI-H23 lung; NCI-H460 lung; UACC-257 melanoma; SNB-19 CNS; SR leukemia; DU-145 prostate.
Assay in all cases: NCI anticancer screen, dose series, 48 h

Turning to `O=C(O)CNCc1c2ccccc2[n+]([O-])c2ccccc12`, the TGI in the assay with OVCAR-4 ovarian, in the assay on U251 CNS, in the assay with SN12C renal, in the assay on M14 melanoma, in the assay on NCI-H23 lung and in the assay with NCI-H460 lung was over 100 µM each time. Further, the TGI in the assay with UACC-257 melanoma and with SNB-19 CNS was over 100 µM in each case.
Regarding `CSc1sc(=S)sc1SC`, the TGI in the assay with OVCAR-4 ovarian, in the assay on U251 CNS, in the assay on SN12C renal, in the assay with NCI-H23 lung, with NCI-H460 lung and in the assay with UACC-257 melanoma was over 100 µM each time. Also, the TGI in the assay on SNB-19 CNS was over 100 µM.
As for `COc1cc2c3c(c4cc(OC)c(OC)cc4c2cc1OC)[C@H](O)[C@@H]1CCCN1C3`, the TGI with OVCAR-4 ovarian turned out to be 0.702 µM; with U251 CNS, 2.5 µM; in the assay on SR leukemia, 2.67 µM; in the assay with SN12C renal it was 1.42 µM; in the assay with M14 melanoma it was 2.06 µM; with DU-145 prostate, 1.45 µM. Also, the TGI with NCI-H23 lung is 1.93 µM; in the assay on NCI-H460 lung, 0.72 µM; in the assay on UACC-257 melanoma, 1.15 µM; in the assay on SNB-19 CNS, over 100 µM.
Take `O=C(O)C(Br)Cc1ccc2c(c1)OCO2` (configuration not stated): the TGI in the assay with OVCAR-4 ovarian, in the assay with U251 CNS, in the assay with SR leukemia, with SN12C renal, in the assay with M14 melanoma and in the assay on NCI-H23 lung was over 100 µM throughout. The TGI with NCI-H460 lung, in the assay on UACC-257 melanoma and in the assay on SNB-19 CNS was over 100 µM each time.
`COC(=O)c1nc2c3c(cccc3c1C(=O)OC)Nc1ccccc1-2`: the TGI in the assay on OVCAR-4 ovarian, in the assay with U251 CNS, in the assay on SR leukemia, in the assay on SN12C renal, with M14 melanoma and in the assay on DU-145 prostate was over 100 µM each time. Further, the TGI was over 100 µM in the assay with NCI-H23 lung, 77.9 µM in the assay with NCI-H460 lung, over 100 µM in the assay on UACC-257 melanoma and over 100 µM with SNB-19 CNS.
For the molecule `CC1(C)N=C(N)N=C(N)N1c1cccc(OCc2cccc([N+](=O)[O-])c2)c1`, the TGI with OVCAR-4 ovarian was over 100 µM; in the assay with U251 CNS, 98.9 µM; in the assay on SN12C renal, over 100 µM; in the assay on M14 melanoma, over 100 µM; in the assay on DU-145 prostate, over 100 µM; with NCI-H23 lung, over 100 µM. Besides, the values for the TGI with NCI-H460 lung, with UACC-257 melanoma and in the assay on SNB-19 CNS were 51.6 µM, 48.2 µM and over 100 µM, respectively.
In the case of `C=CC(c1ccccc1)C1(O)c2cccc(O)c2C(=O)c2c(O)cccc21` (configuration not stated), the TGI was 33.2 µM with OVCAR-4 ovarian; 24.5 µM in the assay with U251 CNS; 24.2 µM with SR leukemia; 34.5 µM in the assay with M14 melanoma; 28.8 µM in the assay with DU-145 prostate; 30.8 µM in the assay on NCI-H23 lung. The values for the TGI with NCI-H460 lung and in the assay with UACC-257 melanoma were 36.7 µM and 40.2 µM, respectively.
With `CCCCCCCCCCCCCCCCOCCCOP(=O)(O)C1CCCN(O)C1=O` (configuration not stated), the GI50 was 2.43 µM in the assay on OVCAR-4 ovarian; 0.489 µM in the assay with U251 CNS; 1.53 µM in the assay on SN12C renal; 2.53 µM in the assay on DU-145 prostate; 4.19 µM in the assay with NCI-H23 lung; 0.375 µM in the assay with NCI-H460 lung. Besides, the values for the GI50 in the assay with UACC-257 melanoma and in the assay with SNB-19 CNS were 3.23 µM and 0.63 µM, respectively. Moreover, the TGI was 19.2 µM in the assay with OVCAR-4 ovarian; 15.3 µM in the assay on U251 CNS; 12.8 µM in the assay on SN12C renal; over 100 µM in the assay with DU-145 prostate; 20.5 µM in the assay on NCI-H23 lung; 4.51 µM in the assay with NCI-H460 lung. The TGI in the assay with UACC-257 melanoma stood at 14.8 µM; in the assay on SNB-19 CNS, 14.5 µM.
Take `S=C1NN=C2C(=C3CCCC4C5CCCCC5N2C34)N1` (configuration not stated): the TGI in the assay on OVCAR-4 ovarian, with SR leukemia, in the assay with M14 melanoma, in the assay with DU-145 prostate, in the assay with NCI-H23 lung and in the assay with UACC-257 melanoma was over 100 µM throughout. Besides, the TGI in the assay on SNB-19 CNS is over 100 µM.
Turning to `O=C1c2ccccc2C(=O)c2c(O)c(O)cc(O)c21`, the TGI in the assay with OVCAR-4 ovarian, in the assay on U251 CNS, in the assay with SN12C renal, in the assay on M14 melanoma, in the assay with NCI-H23 lung and in the assay on NCI-H460 lung was over 100 µM in each case. The TGI with UACC-257 melanoma and in the assay on SNB-19 CNS was over 100 µM in each case.
Consider `C/C(=C\COP(=O)(O)OP(=O)(O)O)CC/C=C(\C)CNc1ccc([N+](=O)[O-])cc1`, for which the TGI in the assay on OVCAR-4 ovarian, in the assay with U251 CNS, in the assay on SR leukemia, in the assay on SN12C renal, in the assay on M14 melanoma and in the assay with DU-145 prostate was over 100 µM throughout. The TGI with NCI-H23 lung, in the assay on NCI-H460 lung, in the assay with UACC-257 melanoma and in the assay on SNB-19 CNS was over 100 µM throughout.
For `COc1ccc2c(c1)/C(=C\c1cccc(/C=C3/C(=O)Nc4ccc(OC)cc43)n1)C(=O)N2`, the TGI was 3.28 µM in the assay on OVCAR-4 ovarian; 5.83 µM in the assay with U251 CNS; 0.452 µM in the assay on SR leukemia; 4.91 µM in the assay with SN12C renal; 3.22 µM in the assay with M14 melanoma; 9.73 µM with DU-145 prostate. In addition, the TGI was 2.6 µM in the assay with NCI-H23 lung, over 24.6 µM in the assay with NCI-H460 lung, 18.4 µM with UACC-257 melanoma and 3.38 µM in the assay on SNB-19 CNS. For the same molecule, the GI50 in the assay on SR leukemia is 0.209 µM.
As for `COc1ccc(/C=C/[N+](=O)[O-])cc1`, the TGI in the assay on OVCAR-4 ovarian was determined as 38.2 µM; with U251 CNS, 19.1 µM; in the assay on SR leukemia, 5.48 µM; with SN12C renal, 56 µM; in the assay on M14 melanoma, 6.48 µM; in the assay with DU-145 prostate, 20.3 µM. In addition, the TGI in the assay with NCI-H23 lung was 59.9 µM; in the assay on NCI-H460 lung, 55.3 µM; in the assay with UACC-257 melanoma it was 8.09 µM; in the assay on SNB-19 CNS, 12.7 µM.
As for `C#C[C@@]1(O)[C@@H](CO)O[C@@H](n2cc(F)c3c(N)ncnc32)[C@@H]1O`, the GI50 was 1.01 µM with OVCAR-4 ovarian; 0.631 µM with U251 CNS; 0.185 µM in the assay on SR leukemia; 0.302 µM in the assay on SN12C renal; 0.481 µM in the assay with M14 melanoma; 0.354 µM in the assay on DU-145 prostate. Moreover, the GI50 in the assay with NCI-H23 lung was 0.398 µM; with NCI-H460 lung, 0.231 µM; in the assay with UACC-257 melanoma, 0.487 µM; with SNB-19 CNS, 0.524 µM. Besides, the TGI in the assay on OVCAR-4 ovarian was 8.67 µM; in the assay with U251 CNS, 11.6 µM; in the assay with SR leukemia, over 100 µM; with SN12C renal, 4.74 µM; in the assay on M14 melanoma, 2.39 µM; with DU-145 prostate, 13.4 µM. Moreover, the TGI with NCI-H23 lung was 6.85 µM; in the assay with NCI-H460 lung, 10.2 µM; in the assay on UACC-257 melanoma it was 4.64 µM; with SNB-19 CNS, 13.7 µM.
Turning to `N#CC1=C(N)Nc2nc3ccccc3n2C1c1ccccc1` (configuration not stated), the TGI with U251 CNS, in the assay on SR leukemia, in the assay with SN12C renal, in the assay on M14 melanoma, in the assay with DU-145 prostate and in the assay with NCI-H23 lung was over 100 µM throughout. Moreover, the TGI in the assay with NCI-H460 lung, with UACC-257 melanoma and in the assay with SNB-19 CNS was over 100 µM throughout.
Consider `C[C@H](CCC1=NCCN1)[C@H]1CC[C@H]2[C@@H]3CC[C@@H]4C[C@H](O)CC[C@]4(C)[C@H]3CC[C@]12C`, for which the TGI was 29.6 µM with OVCAR-4 ovarian; over 45.2 µM in the assay on U251 CNS; over 20 µM in the assay with SR leukemia; 37.3 µM in the assay on SN12C renal; over 22.6 µM in the assay on M14 melanoma; 35.8 µM in the assay with DU-145 prostate. The TGI with NCI-H23 lung was 35 µM; in the assay on NCI-H460 lung it was over 33.9 µM; in the assay on UACC-257 melanoma, 6.6 µM; in the assay with SNB-19 CNS it was 36.3 µM.
As to `O=C1OC2(c3ccc(O)cc3Oc3cc(O)ccc32)c2c1c(-c1ccccc1)c(-c1ccccc1)c(-c1ccccc1)c2-c1ccccc1`, the TGI came out at 80.7 µM with OVCAR-4 ovarian; 31.5 µM in the assay on U251 CNS; 46.1 µM in the assay with SR leukemia; 60.3 µM in the assay on SN12C renal; 34.4 µM with M14 melanoma; 35.2 µM in the assay with DU-145 prostate. Besides, the TGI in the assay on NCI-H460 lung turned out to be 33.7 µM; in the assay on UACC-257 melanoma, 78.3 µM; with SNB-19 CNS, 37.7 µM.
With `Nc1nncs1`, the TGI in the assay on OVCAR-4 ovarian, in the assay with U251 CNS, in the assay with SR leukemia, in the assay with SN12C renal, in the assay with M14 melanoma and with DU-145 prostate was over 5000 µM each time. Also, the TGI in the assay on NCI-H23 lung was over 4730 µM; in the assay with NCI-H460 lung it was 3750 µM; in the assay on UACC-257 melanoma it was over 4200 µM; in the assay on SNB-19 CNS it was over 5000 µM.
On to `NC(=O)c1cc(C2OC(CO)C(O)C2O)nn1-c1ccc([N+](=O)[O-])cc1` (configuration not stated), for which the TGI in the assay on OVCAR-4 ovarian, in the assay on U251 CNS, in the assay with SN12C renal, with M14 melanoma, with NCI-H23 lung and in the assay on NCI-H460 lung was over 100 µM throughout. Besides, the TGI in the assay with UACC-257 melanoma and with SNB-19 CNS was over 100 µM throughout.
On to `N#CC(C#N)=C1CCCCc2ccc([N+](=O)[O-])cc21`, for which the TGI in the assay with OVCAR-4 ovarian, in the assay on U251 CNS, in the assay with SN12C renal, in the assay on M14 melanoma, with DU-145 prostate and in the assay with NCI-H23 lung was over 100 µM each time. The TGI with NCI-H460 lung, with UACC-257 melanoma and in the assay with SNB-19 CNS was over 100 µM each time.
`COc1cc2c3c(n(C4CCNCC4)c(=O)c2cc1OC)-c1cc2c(cc1C3=O)OCO2`: the GI50 in the assay on OVCAR-4 ovarian is 1.42 µM; in the assay with U251 CNS, 0.279 µM; in the assay on DU-145 prostate, 0.423 µM; in the assay with NCI-H23 lung, 0.538 µM; in the assay on NCI-H460 lung, 0.119 µM. For the same molecule, the TGI in the assay with OVCAR-4 ovarian was 2.95 µM; in the assay with U251 CNS it was 2.01 µM; with DU-145 prostate it was 1.55 µM; in the assay on NCI-H23 lung, 2.39 µM; in the assay on NCI-H460 lung it was 0.276 µM.
`O=C(O)Cc1[nH]cnc1C(=O)O`: the TGI in the assay with OVCAR-4 ovarian, with U251 CNS, in the assay on SN12C renal, in the assay with M14 melanoma, with DU-145 prostate and in the assay on NCI-H23 lung was over 100 µM in each case. For the same molecule, the TGI in the assay on NCI-H460 lung, with UACC-257 melanoma and with SNB-19 CNS was over 100 µM throughout.
In the case of `CSc1ccc(-c2cc(-c3nc4ccccc4[nH]3)nc3[nH]c(-c4nc5ccccc5[nH]4)cc(=O)c23)cc1`, the TGI with OVCAR-4 ovarian, with U251 CNS, in the assay with SR leukemia, in the assay with SN12C renal, in the assay on M14 melanoma and with DU-145 prostate was over 100 µM each time. Further, the TGI in the assay on NCI-H23 lung, with NCI-H460 lung, with UACC-257 melanoma and in the assay on SNB-19 CNS was over 100 µM in each case.
